How the values were obtained:
[1] = target: T1, HCV polymerase (Hepatitis C virus genotype 1b, UniProt Q9WMX2); assay: Polymerase assay of Biological Example 1 (IC50 values of Table 3); format: biochemical; conditions: IC50 values of Table 3, polymerase assay of Biological Example 1; read-out: NS5B-enzyme3
T1 construct: (His)6 (C); made in house; host or cells: XL-1 cells (E. coli, by own knowledge)

[2] = test system: HCV replicon I389luc-ubi-neo/NS3-3′/ET in ET (Huh-lucubineo-ET) cells; assay: Replicon assay (Biological Example 2), luciferase readout; format: cell-based; conditions: Hepatitis C virus
Summary of the method: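 EC50 values come from Hill fits of % inhibition of replicon-driven firefly luciferase, relative to no-compound wells. Compounds were serially diluted (10 points, 3-fold, 0.1 nM–50 μM final, 0.5% DMSO) onto ET replicon cells and read after 48 h.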

[3] = ET cells, luciferase activity 48 hours after compound

Compound | IC50 [1] [nM] | IC50 [2, 3] [nM] | IC50 ([2]; between 100 nM and 5.0 uM) [nM]
CC(C)(C)C#Cc1cc(N2C(=O)C(CO)OC[C@H]2C2CCCCC2)c(C(=O)O)s1 (stereo partly drawn) [Compound 329, 3-((R)-5-Cyclohexyl-2-hydroxymethyl-3-oxo-morpholin-4-yl)-5-(3,3-dimethyl-but-1-ynyl)-thiophene-2-carboxylic acid] | 5 | ≤ 100 | 
O=C(O)c1sc(-c2ccc(F)cc2)cc1N1C(=O)CN(S(=O)(=O)c2ccc(N3CC[C@@H](F)C3)nc2)C[C@H]1C1CCCCC1 [Compound 280, 3-{(R)-2-Cyclohexyl-4-[6-((R)-3-fluoro-pyrrolidin-1-yl)-pyridine-3-sulfonyl]-6-oxo-piperazin-1-yl}-5-(4-fluoro-phenyl)-thiophene-2-carboxylic acid] | 1 | ≤ 100 | 
Cc1noc(C)c1S(=O)(=O)N1CC(=O)N(c2cc(-c3ccccc3)sc2C(=O)O)C(C2CCCCC2)C1 (stereo not shown) [Compound 32, 3-[2-Cyclohexyl-4-(3,5-dimethyl-isoxazole-4-sulfonyl)-6-oxo-piperazin-1-yl]-5-phenyl-thiophene-2-carboxylic acid] | 241 | ≥ 5000 | 
CN1CCC(N2CC(=O)N(c3cc(-c4ccccc4)sc3C(=O)O)[C@H](C3CCCCC3)C2)CC1 [Compound 271, 3-[(R)-2-Cyclohexyl-4-(1-methyl-piperidin-4-yl)-6-oxo-piperazin-1-yl]-5-phenyl-thiophene-2-carboxylic acid] | 2470 | ≥ 5000 | 
CC(C)(C)C#Cc1cc(N2C(=O)C(C)(C)OC[C@H]2C2CCCCC2)c(C(=O)O)s1 [Compound 290, 3-((R)-5-Cyclohexyl-2,2-dimethyl-3-oxomorpholin-4-yl)-5-(3,3-dimethyl-but-1-ynyl)-thiophene-2-carboxylic acid] | 2 | ≤ 100 | 
O=C(O)c1sc(-c2ccccc2)cc1N1C(=O)CN(S(=O)(=O)c2ccc(-c3cccnc3)nc2)C[C@H]1C1CCCCC1 [Compound 214, 3-[(R)-4-([2,3′]Bipyridinyl-5-sulfonyl)-2-cyclohexyl-6-oxo-piperazin-1-yl]-5-phenyl-thiophene-2-carboxylic acid] | 1 |  | 100 to 5000
O=C(O)c1sc(-c2ccccc2)cc1N1C(=O)CN(S(=O)(=O)CCc2ccccc2)CC1C1CCCCC1 (stereo not shown) [Compound 39, 3-[2-Cyclohexyl-6-oxo-4-(2-phenyl-ethanesulfonyl)-piperazin-1-yl]-5-phenyl-thiophene-2-carboxylic acid] | 51 |  | 100 to 5000
Cc1ccc(-c2cc(N3C(=O)C(O)CCC3C3CCCCC3)c(C(=O)O)s2)cc1 (stereo not shown) [Compound 317, 3-(6-Cyclohexyl-3-hydroxy-2-oxo-piperidin-1-yl)-5-p-tolyl-thiophene-2-carboxylic acid] | 24.1 |  | 100 to 5000
COc1ccc(S(=O)(=O)N2CC(=O)N(c3cc(C#CC(C)(C)C)sc3C(=O)O)[C@H](C3CCCCC3)C2)cc1F [Compound 246, 3-[(R)-2-Cyclohexyl-4-(3-fluoro-4-methoxy-benzenesulfonyl)-6-oxo-piperazin-1-yl]-5-(3,3-dimethyl-but-1-ynyl)-thiophene-2-carboxylic acid] | 4 | ≤ 100 | 
Cc1ccc(-c2cc(N3C(=O)CN(S(=O)(=O)c4ccc(N5CCC[C@H]5C)nc4)C[C@H]3C3CCCCC3)c(C(=O)O)s2)cc1 [Compound 180, 3-{(R)-2-Cyclohexyl-4-[6-((R)-2-methyl-pyrrolidin-1-yl)-pyridine-3-sulfonyl]-6-oxo-piperazin-1-yl}-5-p-tolyl-thiophene-2-carboxylic acid] | < 0.2 | ≤ 100 | 
CC(C)(C)c1ccc(S(=O)(=O)N2CC(=O)N(c3cc(-c4ccccc4)sc3C(=O)O)C(C3CCCCC3)C2)cc1 (stereo not shown) [Compound 105, 3-[4-(4-tert-Butyl-benzenesulfonyl)-2-cyclohexyl-6-oxo-piperazin-1-yl]-5-phenyl-thiophene-2-carboxylic acid] | 2 |  | 100 to 5000
Cc1ccccc1S(=O)(=O)N1CC(=O)N(c2cc(-c3ccccc3)sc2C(=O)O)C(C2CCCCC2)C1 (stereo not shown) [Compound 58, 3-[2-Cyclohexyl-6-oxo-4-(toluene-2-sulfonyl)-piperazin-1-yl]-5-phenyl-thiophene-2-carboxylic acid] | 88 |  | 100 to 5000
C[C@@H]1COCCN1c1ccc(S(=O)(=O)N2CC(=O)N(c3cc(-c4ccc(Cl)cc4)sc3C(=O)O)[C@H](C3CCCCC3)C2)cn1 [Compound 226, 5-(4-Chloro-phenyl)-3-{(R)-2-cyclohexyl-4-[6-((R)-3-methyl-morpholin-4-yl)-pyridine-3-sulfonyl]-6-oxo-piperazin-1-yl}-thiophene-2-carboxylic acid] | 9 | ≤ 100 | 
CC(C)(C)C#Cc1cc(N2C(=O)CN(S(=O)(=O)c3c[nH]cn3)C[C@H]2C2CCCCC2)c(C(=O)O)s1 [Compound 247, 3-[(R)-2-Cyclohexyl-4-(1H-imidazole-4-sulfonyl)-6-oxo-piperazin-1-yl]-5-(3,3-dimethyl-but-1-ynyl)-thiophene-2-carboxylic acid] | 2 | ≤ 100 | 
CC1CN(c2ccc(S(=O)(=O)N3CC(=O)N(c4cc(-c5ccccc5)sc4C(=O)O)C(C4CCCCC4)C3)cn2)CC(C)O1 (stereo not shown) [Compound 87, 3-{2-Cyclohexyl-4-[6-(2,6-dimethyl-morpholin-4-yl)-pyridine-3-sulfonyl]-6-oxopiperazin-1-yl}-5-phenyl-thiophene-2-carboxylic acid] | 5 | ≤ 100 | 
CC(C)(C)C#Cc1cc(N2C(=O)[C@](C)(CCCO)OC[C@H]2C2CCCCC2)c(C(=O)O)s1 [Compound 7, 3-[(2S,5R)-5-Cyclohexyl-2-(3-hydroxy-propyl)-2-methyl-3-oxo-morpholin-4-yl]-5-(3,3-dimethyl-but-1-ynyl)-thiophene-2-carboxylic acid] | 6 | ≤ 100 | 
CN(c1ccc(S(=O)(=O)N2CC(=O)N(c3cc(-c4ccccc4)sc3C(=O)O)C(C3CCCCC3)C2)cn1)C1CCCCC1 (stereo not shown) [Compound 91, 3-{2-Cyclohexyl-4-[6-(cyclohexyl-methyl-amino)-pyridine-3-sulfonyl]-6-oxo-piperazin-1-yl}-5-phenyl-thiophene-2-carboxylic acid] | 12 | ≤ 100 | 
CC(C)(C)C#Cc1cc(N2C(=O)[C@@H](CCCO)OC[C@H]2C2CCCCC2)c(C(=O)O)s1 (single isomer, unassigned) [Compound 3] | 4 | ≤ 100 | 
Cc1ccc(-c2cc(N3C(=O)CN(S(=O)(=O)c4ccc(N5CCOC[C@H]5C)nc4)C[C@H]3C3CCCCC3)c(C(=O)O)s2)cc1 [Compound 197, 3-{(R)-2-Cyclohexyl-4-[6-((R)-3-methyl-morpholin-4-yl)-pyridine-3-sulfonyl]-6-oxo-piperazin-1-yl}-5-p-tolyl-thiophene-2-carboxylic acid] | 4.6 | ≤ 100 | 
Cc1cc(S(=O)(=O)N2CC(=O)N(c3cc(-c4ccccc4)sc3C(=O)O)[C@H](C3CCCCC3)C2)cnc1N1CCCC1 [Compound 172, 3-[(R)-2-Cyclohexyl-4-(5-methyl-6-pyrrolidin-1-yl-pyridine-3-sulfonyl)-6-oxo-piperazin-1-yl]-5-phenyl-thiophene-2-carboxylic acid] | 1.2 | ≤ 100 | 
CN1CCOc2cc(S(=O)(=O)N3CC(=O)N(c4cc(-c5ccccc5)sc4C(=O)O)C(C4CCCCC4)C3)cnc21 (stereo not shown) [Compound 99, 3-[2-Cyclohexyl-4-(4-methyl-3,4-dihydro-2H-pyrido[3,2-b][1,4]oxazine-7-sulfonyl)-6-oxo-piperazin-1-yl]-5-phenyl-thiophene-2-carboxylic acid] | 2 | ≤ 100 | 
O=C(O)c1sc(-c2ccc(F)cc2)cc1N1C(=O)CN(S(=O)(=O)c2ccc(N3C[C@H]4C[C@@H]3CO4)nc2)C[C@H]1C1CCCCC1 [Compound 273, 3-{(R)-2-Cyclohexyl-4-[(1R,4R)-6-(2-oxa-5-aza-bicyclo[2.2.1]hept-5-yl)-pyridine-3-sulfonyl]-6-oxo-piperazin-1-yl}-5-(4-fluoro-phenyl)-thiophene-2-carboxylic acid] | 1 | ≤ 100 | 
COC[C@@H]1CCCN1c1ccc(S(=O)(=O)N2CC(=O)N(c3cc(-c4ccccc4)sc3C(=O)O)[C@H](C3CCCCC3)C2)cn1 [Compound 171, 3-{(R)-2-Cyclohexyl-4-[6-((S)-2-methoxymethyl-pyrrolidin-1-yl)-pyridine-3-sulfonyl]-6-oxo-piperazin-1-yl}-5-phenyl-thiophene-2-carboxylic acid] | 2 | ≤ 100 | 
C[C@@H]1COCCN1c1ccc(S(=O)(=O)N2CC(=O)N(c3cc(-c4ccc(F)cc4)sc3C(=O)O)[C@H](C3CCCCC3)C2)cn1 [Compound 195, 3-{(R)-2-Cyclohexyl-4-[6-((R)-3-methyl-morpholin-4-yl)-pyridine-3-sulfonyl]-6-oxo-piperazin-1-yl}-5-(4-fluoro-phenyl)-thiophene-2-carboxylic acid] | 3 | ≤ 100 | 
Cc1ccc(-c2cc(N3C(=O)CN(S(=O)(=O)c4ccc(C)nc4)C[C@H]3C3CCCCC3)c(C(=O)O)s2)cc1 [Compound 302, 3-[(R)-2-Cyclohexyl-4-(6-methyl-pyridine-3-sulfonyl)-6-oxo-piperazin-1-yl]-5-p-tolyl-thiophene-2-carboxylic acid] | 3 | ≤ 100 | 
O=C(O)c1sc(-c2ccccc2)cc1N1C(=O)CN(S(=O)(=O)c2ccc(NC3CCCCC3)nc2)CC1C1CCCCC1 (stereo not shown) [Compound 75, 3-[2-Cyclohexyl-4-(6-cyclohexylamino-pyridine-3-sulfonyl)-6-oxo-piperazin-1-yl]-5-phenyl-thiophene-2-carboxylic acid] | 8 | ≤ 100 | 

— US9498483B2, “2,3,5-trisubstituted thiophene compounds and uses thereof” (priority 2010, dated 2016)
